Reference: US8471061B2 (priority 2004, dated 2013)
“And” between values parts separate entries of the source, which are not always exact repeats. Equal values may be shown once. Read-outs that look alike come from different tables or passages of the source.

Tests used:
[1] = tested on: radish; assay: Plant activating effect, foliar application, radish; format: in vivo; settings: 21 days, 12 seeds
Method: After 600 g of upland soil was packed in a porcelain pot of 12 cm in inner diameter, 12 grains of radish seeds were sowed therein, covered with 5 mm in depth of the soil and allowed to grow in a green house. Foliar application treatment was carried out once a day using the following application liquids. Conditions of the leaves 21 days thereafter were observed.

[2] = Degradation test by sterilization; format: physicochemical; settings: 50 mg heat sterilized, 121° C., 20 minutes, 1.5 kgf/cm^2
Method: Firstly, 50 mg of 5-aminolevulinic acid p-toluenesulfonate or 5-aminolevulinic acid hydrochloride was heat sterilized (121° C., 20 minutes, 1.5 kgf/cm^2). After confirming that there is no change in weight before and after the sterilization, degree of degradation of 5-aminolevulinic acid before and after the sterilization was verified by the method described in a reference (Clin. Chem., 36/8, 1494 (1990)).

[3] = tested on: Chlorella sp.; assay: Culturing of plankton; format: cell-based; settings: 1 mM additive
Method: 5-Aminolevulinic acid nitrate was added, to a concentration of 1 mM (194 ppm), to 100 ml of a sterilized culture shown in Table 17 (components of the culture), and a Chlorella sp. was inoculated therein and cultured on a reciprocal shaker at 30° C. under aerobic and dark conditions to measure the amount of cells (OD 660).
5-Aminolevulinic acid hydrochloride was added, to a concentration of 1 mM (168 ppm), to 100 ml of the sterilized culture shown in Table 17 (components of the culture), and the Chlorella sp. was inoculated therein and cultured on a reciprocal shaker at 30° C. under aerobic and dark conditions to measure the amount of cells (OD 660).
The Chlorella sp. was inoculated into 100 ml of the sterilized culture shown in Table 17 (components of the culture) and cultured on a reciprocal shaker at 30° C. under aerobic and dark conditions to measure the amount of cells (OD 660).

[4] = tested on: Escherichia coli WP2 uvrA; assay: Back mutation test, WP2uvrA; format: cell-based; settings: for number of back mutation, single plates: Phosphate
Method: A test was carried out in accordance with the “Standard of Mutagenicity Tests Using Microorganisms” (Ministry of Labor Notification No. 77, 1988) (partial revision by Ministry of Labor Notification No. 67, 1997) and “Regarding the Tests Concerning Novel Chemical Substances and the like” (dated Nov. 21, 2003: Yaku-Shoku-Hatsu No. 1121002, 2003.11.13 Sei-Kyoku, No. 2, Kan-Ho-Ki-Hatsu No. 031121002). To 0.1 ml of a solution prepared by dissolving 5% (w/v) of 5-aminolevulinic acid phosphate in distilled water (Wako Pure Chemical Industries), 0.5 ml of 0.1 M sodium-phosphate buffer (pH 7.4) (0.5 ml S9 mix in the case of metabolism activation test) was added, and 0.1 ml of each test strain suspension (5 strains of histidine-less Salmonella typhimurium TA 100, TA 98, TA 1535 and TA 1537 and tryptophan-less Escherichia coli WP2 uvrA were used (Japan Bioassay Research Center)) was further added thereto, followed by pre-incubation at 37° C. for 20 minutes while shaking. After completion of the culturing, 2.0 ml of top agar kept at 45° C. in advance was added thereto and layered on a minimum glucose agar plate medium. In this case, 2 plates were arranged for each dosage. However, 3 plates were arranged for a solvent control (negative control). […] In the measurement, an inner area of about 80 mm in diameter of a plate of 86 mm in diameter (84 mm in inner diameter) was measured using an automatic colony analyzer (CA-11: manufactured by System Science), and calculated by carrying out area correction and counting loss correction using a personal computer. However, since reliability of the automatic colony analyzer is reduced when the number of colonies is 1,500 or more, 5 points in the plate were manually measured under the stereoscopic microscope to carry out area correction of the average value. A dosage setting test was carried out on 7 dosages diluted at a common ratio of 4, using a dosage of 5,000 μg/plate as the maximum which is the maximum dosage defined by the guideline. […] Growth inhibition of the strains by this substance to be tested was not found. […] Thus, this test was carried out by setting 5 dosages diluted at a common ratio of 2, using a dosage of 5,000 μg/plate as the maximum which is the maximum dosage defined by the guideline.

[5] = tested on: Salmonella typhimurium TA 100, TA 98, TA 1535 and TA 1537 and Escherichia coli WP2 uvrA; assay: Mutagenicity test (back mutation test) using microorganisms, all strains; format: cell-based
Method: A test was carried out in accordance with the “Standard of Mutagenicity Tests Using Microorganisms” (Ministry of Labor Notification No. 77, 1988) (partial revision by Ministry of Labor Notification No. 67, 1997) and “Regarding the Tests Concerning Novel Chemical Substances and the like” (dated Nov. 21, 2003: Yaku-Shoku-Hatsu No. 1121002, 2003.11.13 Sei-Kyoku, No. 2, Kan-Ho-Ki-Hatsu No. 031121002). […] In the measurement, an inner area of about 80 mm in diameter of a plate of 86 mm in diameter (84 mm in inner diameter) was measured using an automatic colony analyzer (CA-11: manufactured by System Science), and calculated by carrying out area correction and counting loss correction using a personal computer. However, since reliability of the automatic colony analyzer is reduced when the number of colonies is 1,500 or more, 5 points in the plate were manually measured under the stereoscopic microscope to carry out area correction of the average value. […]

[6] = tested on: female rats (Sprague-Dawley CD species); settings: for Dead animals: 2000 mg/kg oral, per animal
Method: This test was carried out in accordance with the OECD Guideline No. 423 “Acute Oral Toxicity-Acute Toxicity Grading Method” (adopted on Dec. 17, 2001). Fasted female rats (Sprague-Dawley CD species) of 3 animals per group were treated with 5-aminolevulinic acid phosphate at a dose of 300 mg per kg body weight. In addition, other fasted female rats of two or more groups were treated at a dose of 2000 mg per kg body weight. They were observed after the administration continuously for 2 weeks.

Cl.NCC(=O)CCC(=O)O [5-aminolevulinic acid hydrochloride, reference compound]
plants judged 0: Abnormality was not found on the leaf surface ([1]; 1 ppm in tap water): 4 plants | plants judged 1: A region discolored to yellow was found on the leaf surface ([1]; 1 ppm in tap water): 6 plants | plants judged 2: A necrotic region was found on the leaf surface ([1]; 1 ppm in tap water): 2 plants | plants judged 0: Abnormality was not found on the leaf surface ([1]; 10 ppm in tap water): 4 plants | plants judged 1: A region discolored to yellow was found on the leaf surface ([1]; 10 ppm in tap water): 4 plants | plants judged 2: A necrotic region was found on the leaf surface ([1]; 10 ppm in tap water): 4 plants | plants judged 0: Abnormality was not found on the leaf surface ([1]; 100 ppm in tap water): 3 plants | plants judged 1: A region discolored to yellow was found on the leaf surface ([1]; 100 ppm in tap water): 5 plants | plants judged 2: A necrotic region was found on the leaf surface ([1]; 100 ppm in tap water): 4 plants | Degradation degree (%) [2]: 6.6% | amount of cells: OD 660 nm ([3]; Culture time 0 day): 1.8 | amount of cells: OD 660 nm ([3]; Culture time 1 day): 6.3 | amount of cells: OD 660 nm ([3]; Culture time 2 day): 12.5 | amount of cells: OD 660 nm ([3]; Culture time 3 day): 14.8

NCC(=O)CCC(=O)O.O=P(O)(O)O [5-aminolevulinic acid phosphate, 5-aminolevulinic Acid Phosphate]
number of back mutation, mean (in parentheses) ([4]; S9 Mix(+), 313 μg/plate): (24) colonies/plate | number of back mutation, single plates ([4]; S9 Mix(+), 313 μg/plate): 31 colonies/plate and 17 colonies/plate | number of back mutation, mean (in parentheses) ([4]; S9 Mix(+), 625 μg/plate): (32) colonies/plate | number of back mutation, single plates ([4]; S9 Mix(+), 625 μg/plate): 40 colonies/plate and 24 colonies/plate | number of back mutation, mean (in parentheses) ([4]; S9 Mix(+), 1250 μg/plate): (32) colonies/plate | number of back mutation, single plates ([4]; S9 Mix(+), 1250 μg/plate): 34 colonies/plate and 29 colonies/plate | number of back mutation, mean (in parentheses) ([4]; S9 Mix(+), 2500 μg/plate): (25) colonies/plate | number of back mutation, single plates ([4]; S9 Mix(+), 2500 μg/plate): 23 colonies/plate and 27 colonies/plate | number of back mutation, mean (in parentheses) ([4]; S9 Mix(+), 5000 μg/plate): (28) colonies/plate | number of back mutation, single plates ([4]; S9 Mix(+), 5000 μg/plate): 25 colonies/plate and 30 colonies/plate | number of back mutation, mean (in parentheses) ([4]; S9 Mix(−), 313 μg/plate): (31) colonies/plate | number of back mutation, single plates ([4]; S9 Mix(−), 313 μg/plate): 25 colonies/plate and 36 colonies/plate | number of back mutation, mean (in parentheses) ([4]; S9 Mix(−), 625 μg/plate): (28) colonies/plate | number of back mutation, single plates ([4]; S9 Mix(−), 625 μg/plate): 27 colonies/plate and 28 colonies/plate | number of back mutation, mean (in parentheses) ([4]; S9 Mix(−), 1250 μg/plate): (31) colonies/plate | number of back mutation, single plates ([4]; S9 Mix(−), 1250 μg/plate): 28 colonies/plate and 33 colonies/plate | number of back mutation, mean (in parentheses) ([4]; S9 Mix(−), 2500 μg/plate): (27) colonies/plate | number of back mutation, single plates ([4]; S9 Mix(−), 2500 μg/plate): 25 colonies/plate and 28 colonies/plate | number of back mutation, mean (in parentheses) ([4]; S9 Mix(−), 5000 μg/plate): (31) colonies/plate | number of back mutation, single plates ([4]; S9 Mix(−), 5000 μg/plate): 25 colonies/plate and 36 colonies/plate | mutation inducing ability [5]: does not have the mutation inducing ability | Dead animals ([6]; 0.5 hour after administration): 0 | Dead animals ([6]; 1 hour after administration): 0 | Dead animals ([6]; 2 hour after administration): 0 | Dead animals ([6]; 4 hour after administration): 0 | Dead animals ([6]; day 1 after administration): 0 | Dead animals ([6]; day 2 after administration): 0 | Dead animals ([6]; day 3 after administration): 0 | Dead animals ([6]; day 4 after administration): 0 | Dead animals ([6]; day 5 after administration): 0 | Dead animals ([6]; day 6 after administration): 0 | Dead animals ([6]; day 7 after administration): 0 | Dead animals ([6]; day 8 after administration): 0 | Dead animals ([6]; day 9 after administration): 0 | Dead animals ([6]; day 10 after administration): 0 | Dead animals ([6]; day 11 after administration): 0 | Dead animals ([6]; day 12 after administration): 0 | Dead animals ([6]; day 13 after administration): 0 | Dead animals ([6]; day 14 after administration): 0 | death ([6]; 300 and 2000 mg per kg body weight, 2 weeks): death was not found in all of the rats | acute oral 50% lethal dose (LD50) ([6]; fasted female rats, observed 2 weeks): > 2,500 mg per kg body weight
